The numbers were not newly measured in US20250009631A1, “METHOD OF NAIL STRENGTHENING WITH A COMPLEX MICHAEL ADDITION TREATMENT COMPOSITION” (Wella Operations US, LLC, priority 2023, published 2025), which cites them from elsewhere.

SMILES strings stand for the structures. Read-outs that look alike come from different tables or passages of the source.

The conditions of the series: nail plate.

Consider `c1ccncc1` [pyridine], for which the permeability coefficient result is, setting by setting: (pH 2) “at least some permeation”; (pH 7.4) “high permeation coefficient”.
